Experimental data reported in PubChem BioAssay AID2060887 (Molecular Pharmacology Branch, DTP, NCI, 2025).

Test system: 782815-120-R-J1-PDC complex spheroid viability
Assay: Anticancer human tumor 782815-120-R-J1-PDC patient-derived colon adenocarcinoma cell line growth inhibition [RAS]
Conditions: for viability, T/C: stronger effect = lower value
Outline: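 Agents were tested in combination matrices in half-log decrements from a top concentration at or near clinical Cmax (10 microM if undetermined). Targets were multi-cell spheroids of tumour lines plus HUVEC and MSC stromal cells.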
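Also: spheroids exposed to compounds for 7 days before reading.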
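For viability, T/C in this document: 100% = DMSO vehicle control viability.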

CC(Nc1ccc2c(c1)OCCn1cc(N3C(=O)OCC3C(F)F)nc1-2)C(N)=O (stereo not drawn) + C=CC(=O)N1CCN(c2nc(OCC3CCCN3C)nc3c(F)c(-c4nc(N)cc(C)c4C(F)(F)F)c(Cl)cc23)C(C)C1
IC50 (curve of first compound, second compound 0.00316 µM): > 10 µM
IC50 (curve of first compound, second compound 0.01 µM): > 10 µM
IC50 (curve of first compound, second compound 0.0316 µM): > 10 µM
IC50 (curve of first compound, second compound 0.1 µM): > 10 µM
IC50 (curve of first compound, second compound 0.316 µM): > 10 µM
IC50 (curve of first compound, second compound 1 µM): > 10 µM
viability, T/C (second compound 0.00316 µM, first compound 0.0316 µM): 92.9%
viability, T/C (second compound 0.00316 µM, first compound 0.1 µM): 87.6%
viability, T/C (second compound 0.00316 µM, first compound 0.316 µM): 88.4%
viability, T/C (second compound 0.00316 µM, first compound 1 µM): 79.1%
viability, T/C (second compound 0.00316 µM, first compound 3.16 µM): 99.6%
viability, T/C (second compound 0.00316 µM, first compound 10 µM): 103%
viability, T/C (second compound 0.01 µM, first compound 0.0316 µM): 93.5%
viability, T/C (second compound 0.01 µM, first compound 0.1 µM): 98.6%
viability, T/C (second compound 0.01 µM, first compound 0.316 µM): 95.8%
viability, T/C (second compound 0.01 µM, first compound 1 µM): 83.6%
viability, T/C (second compound 0.01 µM, first compound 3.16 µM): 103%
viability, T/C (second compound 0.01 µM, first compound 10 µM): 98.8%
viability, T/C (second compound 0.0316 µM, first compound 0.0316 µM): 93.2%
viability, T/C (second compound 0.0316 µM, first compound 0.1 µM): 93.6%
viability, T/C (second compound 0.0316 µM, first compound 0.316 µM): 82.3%
viability, T/C (second compound 0.0316 µM, first compound 1 µM): 80.6%
viability, T/C (second compound 0.0316 µM, first compound 3.16 µM): 87.8%
viability, T/C (second compound 0.0316 µM, first compound 10 µM): 93.3%
viability, T/C (second compound 0.1 µM, first compound 0.0316 µM): 88.3%
viability, T/C (second compound 0.1 µM, first compound 0.1 µM): 91.1%
viability, T/C (second compound 0.1 µM, first compound 0.316 µM): 94.1%
viability, T/C (second compound 0.1 µM, first compound 1 µM): 86.1%
viability, T/C (second compound 0.1 µM, first compound 3.16 µM): 102%
viability, T/C (second compound 0.1 µM, first compound 10 µM): 93.2%
viability, T/C (second compound 0.316 µM, first compound 0.0316 µM): 93.6%
viability, T/C (second compound 0.316 µM, first compound 0.1 µM): 86.4%
viability, T/C (second compound 0.316 µM, first compound 0.316 µM): 86.4%
viability, T/C (second compound 0.316 µM, first compound 1 µM): 89.2%
viability, T/C (second compound 0.316 µM, first compound 3.16 µM): 85.1%
viability, T/C (second compound 0.316 µM, first compound 10 µM): 101%
viability, T/C (second compound 1 µM, first compound 0.0316 µM): 95.2%
viability, T/C (second compound 1 µM, first compound 0.1 µM): 79.5%
viability, T/C (second compound 1 µM, first compound 0.316 µM): 87.2%
viability, T/C (second compound 1 µM, first compound 1 µM): 85.2%
viability, T/C (second compound 1 µM, first compound 3.16 µM): 97.8%
viability, T/C (second compound 1 µM, first compound 10 µM): 92.8%

CCn1c(-c2cc(N3CCN(C)CC3)cnc2C(C)OC)c2c3cc(ccc31)-c1csc(n1)CC(NC(=O)C1CC1C)C(=O)N1CCCC(N1)C(=O)OCC(C)(C)C2 (stereo not drawn)
viability, T/C (compound 0.000949 µM): 84.7% [middle of 8 runs]
viability, T/C (compound 0.003 µM): 60.1% [middle of 8 runs]
viability, T/C (compound 0.00949 µM): 35.1% [middle of 8 runs]
viability, T/C (compound 0.03 µM): 20.7% [middle of 8 runs]
viability, T/C (compound 0.0949 µM): 16.4% [middle of 8 runs]
viability, T/C (compound 0.3 µM): 14.7% [middle of 7 runs]
IC50 (compound alone, run of 07/09/2024): 4.66 nM [middle of 8 runs]

Cc1nc(N2CCC3(CC2)COC(C)C3N)c(CO)nc1Sc1ccnc(N)c1Cl (stereo not drawn)
viability, T/C (compound 0.0316 µM): 96.6% [middle of 4 runs]
viability, T/C (compound 0.1 µM): 99.8% [middle of 4 runs]
viability, T/C (compound 0.316 µM): 93.7% [middle of 4 runs]
viability, T/C (compound 1 µM): 94.7% [middle of 4 runs]
viability, T/C (compound 3.16 µM): 98.3% [middle of 4 runs]
viability, T/C (compound 10 µM): 104% [middle of 4 runs]
IC50 (curve of compound): > 10 µM

C=CC(=O)Nc1cc(Nc2nccc(-c3cn(C)c4ccccc34)n2)c(OC)cc1N(C)CCN(C)C + CCn1c(-c2cccnc2C(C)OC)c2c3cc(ccc31)N1CCOC(CC(NC(=O)C(C(C)C)N(C)C(=O)C3(F)CCN(C(=O)C#CC(C)(C)N(C)C)CC3)C(=O)N3CCCC(N3)C(=O)OCC(C)(C)C2)C1
IC50 (curve of first compound, second compound 0.000949 µM): > 1 µM
IC50 (curve of first compound, second compound 0.003 µM): > 1 µM
IC50 (curve of first compound, second compound 0.00949 µM): > 1 µM
IC50 (curve of first compound, second compound 0.03 µM): > 1 µM
IC50 (curve of first compound, second compound 0.0949 µM): > 1 µM
IC50 (curve of first compound, second compound 0.3 µM): > 1 µM
viability, T/C (second compound 0.000949 µM, first compound 0.00316 µM): 102%
viability, T/C (second compound 0.000949 µM, first compound 0.01 µM): 97.7%
viability, T/C (second compound 0.000949 µM, first compound 0.0316 µM): 99.6%
viability, T/C (second compound 0.000949 µM, first compound 0.1 µM): 103%
viability, T/C (second compound 0.000949 µM, first compound 0.316 µM): 87.2%
viability, T/C (second compound 0.000949 µM, first compound 1 µM): 84%
viability, T/C (second compound 0.003 µM, first compound 0.00316 µM): 102%
viability, T/C (second compound 0.003 µM, first compound 0.01 µM): 91.1%
viability, T/C (second compound 0.003 µM, first compound 0.0316 µM): 90.9%
viability, T/C (second compound 0.003 µM, first compound 0.1 µM): 91.9%
viability, T/C (second compound 0.003 µM, first compound 0.316 µM): 93.8%
viability, T/C (second compound 0.003 µM, first compound 1 µM): 83.2%
viability, T/C (second compound 0.00949 µM, first compound 0.00316 µM): 96.9%
viability, T/C (second compound 0.00949 µM, first compound 0.01 µM): 92.8%
viability, T/C (second compound 0.00949 µM, first compound 0.0316 µM): 94.2%
viability, T/C (second compound 0.00949 µM, first compound 0.1 µM): 96.5%
viability, T/C (second compound 0.00949 µM, first compound 0.316 µM): 100%
viability, T/C (second compound 0.00949 µM, first compound 1 µM): 84.3%
viability, T/C (second compound 0.03 µM, first compound 0.00316 µM): 86.4%
viability, T/C (second compound 0.03 µM, first compound 0.01 µM): 92.8%
viability, T/C (second compound 0.03 µM, first compound 0.0316 µM): 96.3%
viability, T/C (second compound 0.03 µM, first compound 0.1 µM): 86.4%
viability, T/C (second compound 0.03 µM, first compound 0.316 µM): 93%
viability, T/C (second compound 0.03 µM, first compound 1 µM): 86.1%
viability, T/C (second compound 0.0949 µM, first compound 0.00316 µM): 94.2%
viability, T/C (second compound 0.0949 µM, first compound 0.01 µM): 94.8%
viability, T/C (second compound 0.0949 µM, first compound 0.0316 µM): 85.3%
viability, T/C (second compound 0.0949 µM, first compound 0.1 µM): 97.3%
viability, T/C (second compound 0.0949 µM, first compound 0.316 µM): 106%
viability, T/C (second compound 0.0949 µM, first compound 1 µM): 86.4%
viability, T/C (second compound 0.3 µM, first compound 0.00316 µM): 85.1%
viability, T/C (second compound 0.3 µM, first compound 0.01 µM): 88%
viability, T/C (second compound 0.3 µM, first compound 0.0316 µM): 96.7%
viability, T/C (second compound 0.3 µM, first compound 0.1 µM): 88.7%
viability, T/C (second compound 0.3 µM, first compound 0.316 µM): 97%
viability, T/C (second compound 0.3 µM, first compound 1 µM): 73.8%
